Tests used:
[1] = system: Candida albicans; experiment: Antifungal activity against Candida albicans ATCC 90028; Growth inhibition at 32 ug/mL in YNB media using NBS plates.; type: functional, ATCC 90028; CLSI reference; conditions: CLSI reference, ASSAY_TEST Inhibition of Fungal Growth, CONC 32 ug.mL-1, detection method Absorption (OD600), plate type NBS, 384well, time 18 hr
[2] = system: Pseudomonas aeruginosa; experiment: Antibacterial activity against Pseudomonas aeruginosa ATCC 27853; Growth inhibition at 32 ug/mL in CAMBH media using NBS plates.; type: functional, ATCC 27853; Type strain; conditions: Type strain, ASSAY_TEST Inhibition of Bacterial Growth, CONC 32 ug.mL-1, detection method Absorption (OD600), MEDIA CAMHB, plate type NBS, 384well, time 18 hr
[3] = system: Cryptococcus neoformans; experiment: Antifungal activity against Cryptococcus neoformans H99 ATCC 208821; Growth inhibition at 32 ug/mL in YNB media using NBS plates.; type: functional, ATCC 208821; H99 Type strain; conditions: H99 Type strain, ASSAY_TEST Inhibition of Fungal Growth, CONC 32 ug.mL-1, detection method Resazurin, Absorption (OD600-OD570), plate type NBS, 384well, time 18 hr
[4] = system: Klebsiella pneumoniae; experiment: Antibacterial activity against Klebsiella pneumoniae MDR ATCC 70063; Growth inhibition at 32 ug/mL in CAMBH media using NBS plates.; type: functional, ATCC 700603; MDR; conditions: ATCC 700603, ASSAY_TEST Inhibition of Bacterial Growth, CONC 32 ug.mL-1, detection method Absorption (OD600), MEDIA CAMHB, plate type NBS, 384well, time 18 hr
[5] = system: Staphylococcus aureus; experiment: Antibacterial activity against Staphylococcus aureus MRSA ATCC 43300; Growth inhibition at 32 ug/mL in CAMBH media using NBS plates.; type: functional, ATCC 43300; MRSA; conditions: ASSAY_TEST Inhibition of Bacterial Growth, CONC 32 ug.mL-1, detection method Absorption (OD600), MEDIA CAMHB, plate type NBS, 384well, time 18 hr
[6] = system: Acinetobacter baumannii; experiment: Antibacterial activity against Acinetobacter baumannii ATCC 19606; Growth inhibition at 32 ug/mL in CAMBH media using NBS plates.; type: functional, ATCC 19606; Type strain; conditions: Type strain, ASSAY_TEST Inhibition of Bacterial Growth, CONC 32 ug.mL-1, detection method Absorption (OD600), MEDIA CAMHB, plate type NBS, 384well, time 18 hr
[7] = system: Escherichia coli; experiment: Antibacterial activity against Escherichia coli ATCC 25922; Growth inhibition at 32 ug/mL in CAMBH media using NBS plates.; type: functional, ATCC 25922; Type strain; conditions: Type strain, ASSAY_TEST Inhibition of Bacterial Growth, CONC 32 ug.mL-1, detection method Absorption (OD600), MEDIA CAMHB, plate type NBS, 384well, time 18 hr
[8] = system: Escherichia coli; experiment: Antibacterial activity against Escherichia coli ATCC 25922; MIC in CAMBH media using NBS plates.; type: functional, ATCC 25922; Type strain; conditions: Type strain, ASSAY_TEST Inhibition of Bacterial Growth, detection method Absorption (OD600), MEDIA CAMHB, plate type NBS, 384well, time 18 hr
[9] = Cytotoxicity against HEK293 cells; CC50 by Resazurin assay in DMEM (10% FBS) media using TC plates; type: toxicity, cell-based, ATCC CRL1573; parameters: time 18 hr; conditions: human
[10] = system: Cryptococcus neoformans; experiment: Antifungal activity against Cryptococcus neoformans H99 ATCC 208821; MIC in YNB media using NBS plates.; type: functional, ATCC 208821; H99 Type strain; conditions: H99 Type strain, ASSAY_TEST Inhibition of Fungal Growth, detection method Resazurin, Absorption (OD600-OD570), plate type NBS, 384well, time 18 hr
[11] = system: Pseudomonas aeruginosa; experiment: Antibacterial activity against Pseudomonas aeruginosa ATCC 27853; MIC in CAMBH media using NBS plates.; type: functional, ATCC 27853; Type strain; conditions: Type strain, ASSAY_TEST Inhibition of Bacterial Growth, detection method Absorption (OD600), MEDIA CAMHB, plate type NBS, 384well, time 18 hr
[12] = system: Candida albicans; experiment: Antifungal activity against Candida albicans ATCC 90028; MIC in YNB media using NBS plates.; type: functional, ATCC 90028; CLSI reference; conditions: CLSI reference, ASSAY_TEST Inhibition of Fungal Growth, detection method Absorption (OD630), plate type NBS, 384well, time 18 hr
[13] = system: Acinetobacter baumannii; experiment: Antibacterial activity against Acinetobacter baumannii ATCC 19606; MIC in CAMBH media using NBS plates.; type: functional, ATCC 19606; Type strain; conditions: Type strain, ASSAY_TEST Inhibition of Bacterial Growth, detection method Absorption (OD600), MEDIA CAMHB, plate type NBS, 384well, time 18 hr
[14] = system: Staphylococcus aureus; experiment: Antibacterial activity against Staphylococcus aureus MRSA ATCC 43300; MIC in CAMBH media using NBS plates.; type: functional, ATCC 43300; MRSA; conditions: ASSAY_TEST Inhibition of Bacterial Growth, detection method Absorption (OD600), MEDIA CAMHB, plate type NBS, 384well, time 18 hr
[15] = system: Klebsiella pneumoniae; experiment: Antibacterial activity against Klebsiella pneumoniae MDR ATCC 70063; MIC in CAMBH media using NBS plates.; type: functional, ATCC 700603; MDR; conditions: ATCC 700603, ASSAY_TEST Inhibition of Bacterial Growth, detection method Absorption (OD600), MEDIA CAMHB, plate type NBS, 384well, time 18 hr

MIC [8] [µg/mL] | MIC [10] [µg/mL] | MIC [11] [µg/mL] | MIC [12] [µg/mL] | MIC [13] [µg/mL] | MIC [14] [µg/mL] | MIC [15] [µg/mL] | SMILES | inhibition at 32 µg/mL [1] [%] | inhibition at 32 µg/mL [2] [%] | inhibition at 32 µg/mL [3] [%] | inhibition at 32 µg/mL [4] [%] | inhibition at 32 µg/mL [5] [%] | inhibition at 32 µg/mL [6] [%] | inhibition at 32 µg/mL [7] [%] | CC50 at 18 h [9] [µg/mL]
– | – | – | – | – | – | – | Nc1ncnc2cc(-c3ccc(C(=O)N4CCOCC4)cc3)sc12 | 1 | 2.4 | -1.2 | 5.4 | 22.2 | 8.3 | 8.6 | –
– | – | – | – | – | – | – | O=C(CCCC[C@@H]1SC[C@@H]2NC(=O)N[C@@H]21)NCCCn1cc(CN2CCCNCCNCCCNCC2)nn1 | 2.8 | 10.9 | 41.9 | 12.5 | 19.4 | 23 | 15.2 | –
> 32 | > 32 | > 32 | > 32 | > 32 | > 32 | > 32 | COc1ccc(-n2c(C)cc(CN3CCC4(CC3)OCCc3sccc34)c2C)cc1 | 2.4 | 22.6 | -0.2 | 15.4 | 55 | 4.6 | 22.4 | > 32
– | – | – | – | – | – | – | COc1ccc(-n2c(C)cc(/C=C3\S/C(=N\c4cccc(O)c4)NC3=O)c2C)cc1 | 2.5 | -0.1 | -6.8 | -1.3 | 8.9 | -4.5 | 2.1 | –
– | – | – | – | – | – | – | COc1cc2c(cc1OC)C1(CCN(Cc3ccccc3)CC1)OCC2 | 2.2 | 23.6 | -8.2 | 16.4 | 16.9 | 7.9 | 17.8 | –
– | – | – | – | – | – | – | O=C(Nc1cccc(Cl)c1)c1cncc2nnc(-c3ccc(OC(F)(F)F)cc3)n12 | 3.5 | 4 | -2.8 | 1.6 | 5.8 | -5.2 | 3.5 | –
– | – | – | – | – | – | – | O=C(Nc1cccc(Cl)c1F)c1cncc2nnc(-c3ccc(OC(F)F)cc3)n12 | 1.1 | 1 | -7.5 | -0.7 | 1.4 | -9.8 | -1.1 | –
– | – | – | – | – | – | – | Cc1cc(C(=O)OCC(N)=O)c(C)n1-c1ccc(F)cc1 | 7.5 | 6 | -2.2 | 12.3 | 24.9 | 12.2 | 13.4 | –
– | – | – | – | – | – | – | Nc1ncnc2cc(-c3cccc(S(N)(=O)=O)c3)sc12 | 8.9 | 2.3 | -4.6 | 9.5 | 27.6 | 7.5 | 17.9 | –

Source: ChEMBL document CHEMBL3832881, “CO-ADD antimicrobial screening data of OSM samples” (2017)
